Laboratory results taken from patent publication US10800801B2, “Crystalline platinum-based compounds” (AKAMARA THERAPEUTICS, INC., priority 2016, dated 2020).

Assay: physchem
Assay type: physicochemical
Conditions: water, Approximate Solubility
Protocol: Despite this, the screen offered a list of suitable solvents/solvent mixtures and anti-solvents to be used for the crystallization experiments. Using information obtained from the initial investigation into the solubility of IO-125, a series of bench scale crystallization experiments were carried out in order to provide examples of solution-based crystallization method that yield crystalline IO-125. Within this investigation, a number of techniques were designed to find suitable crystallization conditions including: using controlled linear cooling of IO-125 in different solvents, anti-solvent additions, evaporations and seeding. […] A significant mass loss was then observed in thermogravimetric trace from approx. 270° C., and was coupled with a large endothermic event with onset of 288.4° C. and peak at 297.2° C. in the differential thermogram. Again, this is likely associated with the decomposition of IO-125.
Initially a series of solvents and mixture of solvents were screened to select suitable solvents for the crystallization procedure.

## CC(C)CCC[C@@H](C)[C@H]1CCC2C3CC=C4C[C@@H](OCCN(CC(=O)[O-])CC(=O)[O][Pt+]5[NH][C@@H]6CCCC[C@H]6[NH]5)CC[C@]4(C)C3CC[C@@]21C (stereo partly shown) [Comp 25]
  solubility: ≤ 10000 µg/mL
